Measurements: patent US20100104659A1, “BENZOPYRANOPYRAZOLES” (priority 2006, published 2010)
Structures can show the parent of a compound that is named as a salt.

test system: RKO human colon adenocarcinoma cells (RKOp27 subclone), proliferating; assay: not given; details: not given

| Compound | −log EC50 [mol/l] RKO p27 uninduced (proliferating), anti-proliferative/cytotoxic activity |
| --- | --- |
| (3RS,3aRS)-8-Fluoro-3-phenyl-3a,4-dihydro-3H-chromeno[4,3-c]pyrazole-2-carboxylic acid ((R)-1-isopropyl-piperidin-3-ylmethyl)-methyl-amide and (3RS,3aRS)-8-Fluoro-3-phenyl-3a,4-dihydro-3H-chromeno[4,3-c]pyrazole-2-carboxylic acid ((S)-1-isopropyl-piperidin-3-ylmethyl)-methyl-amide [Example 26] | (proliferating) ≧7.0 mol/l |
| (3RS,3aRS)-8-Fluoro-3-phenyl-3a,4-dihydro-3H-chromeno[4,3-c]pyrazole-2-carboxylic acid methyl-((R)-1-methyl-piperidin-3-ylmethyl)-amide and (3RS,3aRS)-8-Fluoro-3-phenyl-3a,4-dihydro-3H-chromeno[4,3-c]pyrazole-2-carboxylic acid methyl-((S)-1-methyl-piperidin-3-ylmethyl)-amide [Example 24] | (proliferating) ≧7.0 mol/l |

test system: not given; assay: not given; details: not given

| Compound | melting point [°C] |
| --- | --- |
| CN(C)CCCN(C)C(=O)N1N=C2c3cc(F)ccc3OC[C@@H]2[C@@H]1c1cccc(O)c1 (racemic) (as salt: salt) [Example 6, (3RS,3aRS)-8-Fluoro-3-(3-hydroxy-phenyl)-3a,4-dihydro-3H-chromeno[4,3-c]pyrazole-2-carboxylic acid (3-dimethylamino-propyl)-methyl-amide] | 145 |
| CN(C)CCN(C)C(=O)N1N=C2c3cc(F)ccc3OC[C@@H]2[C@@H]1c1ccccc1 (racemic) (as salt: salt) [Example 19, (3RS,3aRS)-8-Fluoro-3-phenyl-3a,4-dihydro-3H-chromeno[4,3-c]pyrazole-2-carboxylic acid (2-dimethylamino-ethyl)-methyl-amide] | 248 to 250 |
| CN(C)C(=O)N1N=C2c3cc(F)ccc3OC[C@@H]2[C@@H]1c1ccccc1 (racemic) [Example 7, (3RS,3aRS)-8-Fluoro-3-phenyl-3a,4-dihydro-3H-chromeno[4,3-c]pyrazole-2-carboxylic acid dimethylamide] | 117 |
| CC(C)N(C)C(=O)N1N=C2c3cc(F)ccc3OC[C@@H]2[C@@H]1c1ccccc1 (racemic) [Example 13, (3RS,3aRS)-8-Fluoro-3-phenyl-3a,4-dihydro-3H-chromeno[4,3-c]pyrazole-2-carboxylic acid isopropyl-methyl-amide] | 102 to 105 |
| CCN(C)C(=O)N1N=C2c3cc(F)ccc3OC[C@@H]2[C@@H]1c1ccccc1 (racemic) [Example 14, (3RS,3aRS)-8-Fluoro-3-phenyl-3a,4-dihydro-3H-chromeno[4,3-c]pyrazole-2-carboxylic acid ethyl-methyl-amide] | 133 to 137 |
| CN(C(=O)N1N=C2c3cc(F)ccc3OC[C@@H]2[C@@H]1c1ccccc1)C1CCNCC1 (racemic) [Example 16, (3RS,3aRS)-8-Fluoro-3-phenyl-3a,4-dihydro-3H-chromeno[4,3-c]pyrazole-2-carboxylic acid methyl-piperidin-4-yl-amide] | 196 |
| O=C(N(C1CCNCC1)C1CC1)N1N=C2c3cc(F)ccc3OC[C@@H]2[C@@H]1c1ccccc1 (racemic) [Example 17, (3RS,3aRS)-8-Fluoro-3-phenyl-3a,4-dihydro-3H-chromeno[4,3-c]pyrazole-2-carboxylic acid cyclopropyl-piperidin-4-yl-amide] | 142 |
| CN(CCN)C(=O)N1N=C2c3cc(F)ccc3OC[C@@H]2[C@@H]1c1ccccc1 (stereo in doubt) [Example 18, (3RS,3aRS)-8-Fluoro-3-phenyl-3a,4-dihydro-3H-chromeno[4,3-c]pyrazole-2-carboxylic acid (2-amino-ethyl)-methyl-amide] | 113.2 |

test system: RKO human colon adenocarcinoma cells (RKOp27 subclone), proliferating; assay: Alamar Blue cell viability assay, RKO p27 uninduced (proliferating); details: RKOp27, 72 h, read-out: −log EC50 [mol/l] RKO p27 uninduced (proliferating), anti-proliferative/cytotoxic activity (converted)
Experimental: The anti-proliferative/cytotoxic activity of the compounds described herein can be tested on subclones of RKO human colon adenocarcinoma cells (Schmidt et al., Oncogene 19, 2423-2429; 2000) using the Alamar Blue cell viability assay (described in O'Brien et al. Eur J Biochem 267, 5421-5426, 2000). The compounds are dissolved as 10 mM solutions in DMSO and subsequently diluted in semi-logarithmic steps. DMSO dilutions are further diluted 1:100 into Dulbecco's modified Eagle's medium (DMEM) containing 10% fetal calf serum to a final concentration twice as much as the final concentration in the test. RKO subclones are seeded into 96 well flat bottom plates at a density of 4000 cells per well in a volume of 50 μl per well. 24 hours after seeding the 50 μl each of the compound dilutions in DMEM medium are added into each well of the 96 well plate. Each compound dilution is tested as triplicates. Wells containing untreated control cells are filled with 50 μl DMEM medium containing 1% DMSO. The cells are then incubated with the substances for 72 hours at 37° C. in a humidified atmosphere containing 5% carbon dioxide. To determine the viability of the cells, 10 μl of an Alamar Blue solution (Biosource) are added and the fluorescence is measured at an extinction of 544 nm and an emission of 590 nm. For the calculation of the cell viability the emission value from untreated cells is set as 100% viability and the emission rates of treated cells are set in relation to the values of untreated cells. Viabilities are expressed as % values. The Graphpad Prism program (GraphPad Software, Inc) is used for the calculation of EC50 values for anti-proliferative/cytotoxic activity out of the obtained dose-response curves.
Each compound dilution is tested as triplicates. Wells containing untreated control cells are filled with 50 μl DMEM medium containing 1% DMSO. The cells are then incubated with the substances for 72 hours at 37° C. in a humidified atmosphere containing 5% carbon dioxide. To determine the viability of the cells, 10 μl of an Alamar Blue solution (Biosource) are added and the fluorescence is measured at an extinction of 544 nm and an emission of 590 nm. For the calculation of the cell viability the emission value from untreated cells is set as 100% viability and the emission rates of treated cells are set in relation to the values of untreated cells. Viabilities are expressed as % values. The Graphpad Prism program is used for the calculation of EC50 values out of the obtained dose-response curves. Viability is compared of proliferating cells grown in the absence of the inducer Ponasterone A, versus viability of cells arrested by the expression of ectopic p27Kip1 induced by Ponasterone A.

| Compound | EC50 [µM] |
| --- | --- |
| CN(C)C(=O)N1N=C2c3cc(F)ccc3OC[C@@H]2[C@@H]1c1ccccc1 (racemic) [Example 7, (3RS,3aRS)-8-Fluoro-3-phenyl-3a,4-dihydro-3H-chromeno[4,3-c]pyrazole-2-carboxylic acid dimethylamide] | 0.1 to 1 |
| CCN(C)C(=O)N1N=C2c3cc(F)ccc3OC[C@@H]2[C@@H]1c1ccccc1 (racemic) [Example 14, (3RS,3aRS)-8-Fluoro-3-phenyl-3a,4-dihydro-3H-chromeno[4,3-c]pyrazole-2-carboxylic acid ethyl-methyl-amide] | 0.1 to 1 |
| CN(C(=O)N1N=C2c3cc(F)ccc3OC[C@@H]2[C@@H]1c1ccccc1)C1CCNCC1 (racemic) [Example 16, (3RS,3aRS)-8-Fluoro-3-phenyl-3a,4-dihydro-3H-chromeno[4,3-c]pyrazole-2-carboxylic acid methyl-piperidin-4-yl-amide] | ≤ 0.1 |
| O=C(N(C1CCNCC1)C1CC1)N1N=C2c3cc(F)ccc3OC[C@@H]2[C@@H]1c1ccccc1 (racemic) [Example 17, (3RS,3aRS)-8-Fluoro-3-phenyl-3a,4-dihydro-3H-chromeno[4,3-c]pyrazole-2-carboxylic acid cyclopropyl-piperidin-4-yl-amide] | 0.1 to 1 |
| CCN(CCCN(C)C(=O)N1N=C2c3cc(F)ccc3OC[C@H]2[C@H]1c1ccccc1)CCOC (racemic) [Example 56, (3SR,3aSR)-8-Fluoro-3-phenyl-3a,4-dihydro-3H-chromeno[4,3-c]pyrazole-2-carboxylic acid {3-[ethyl-(2-methoxy-ethyl)-amino]-propyl}-methyl-amide] | 0.1 to 1 |
| CCN(CCOC)CCN(C)C(=O)N1N=C2c3cc(F)ccc3OC[C@H]2[C@H]1c1ccccc1 (racemic) [Example 57, (3SR,3aSR)-8-Fluoro-3-phenyl-3a,4-dihydro-3H-chromeno[4,3-c]pyrazole-2-carboxylic acid {2-[ethyl-(2-methoxy-ethyl)-amino]-ethyl}-methyl-amide] | 0.1 to 1 |
| CCN(CCO)CCN(C)C(=O)N1N=C2c3cc(F)ccc3OC[C@@H]2[C@@H]1c1ccccc1 (racemic) [Example 58, (3RS,3aRS)-8-Fluoro-3-phenyl-3a,4-dihydro-3H-chromeno[4,3-c]pyrazole-2-carboxylic acid {2-[ethyl-(2-hydroxy-ethyl)-amino]-ethyl}-methyl-amide] | ≤ 0.1 |
| CCN(CCO)CCCN(C)C(=O)N1N=C2c3cc(F)ccc3OC[C@@H]2[C@@H]1c1ccccc1 (racemic) [Example 59, (3RS,3aRS)-8-Fluoro-3-phenyl-3a,4-dihydro-3H-chromeno[4,3-c]pyrazole-2-carboxylic acid {3-[ethyl-(2-hydroxy-ethyl)-amino]-propyl}-methyl-amide] | ≤ 0.1 |
| CN(CCNC1CC1)C(=O)N1N=C2c3cc(F)ccc3OC[C@H]2[C@H]1c1ccccc1 (racemic) [Example 60, (3SR,3aSR)-8-Fluoro-3-phenyl-3a,4-dihydro-3H-chromeno[4,3-c]pyrazole-2-carboxylic acid (2-cyclopropylamino-ethyl)-methyl-amide] | 0.1 to 1 |
| CCNCCN(C)C(=O)N1N=C2c3cc(F)ccc3OC[C@H]2[C@H]1c1ccccc1 (racemic) [Example 62, (3SR,3aSR)-8-Fluoro-3-phenyl-3a,4-dihydro-3H-chromeno[4,3-c]pyrazole-2-carboxylic acid (2-ethylamino-ethyl)-methyl-amide] | 0.1 to 1 |
| C=CCN(C)CCN(C)C(=O)N1N=C2c3cc(F)ccc3OC[C@H]2[C@H]1c1ccccc1 (racemic) [Example 63, (3SR,3aSR)-8-Fluoro-3-phenyl-3a,4-dihydro-3H-chromeno[4,3-c]pyrazole-2-carboxylic acid [2-(allyl-methyl-amino)-ethyl]-methyl-amide] | 0.1 to 1 |
| C#CCN(C)CCN(C)C(=O)N1N=C2c3cc(F)ccc3OC[C@H]2[C@H]1c1ccccc1 (racemic) [Example 64, (3SR,3aSR)-8-Fluoro-3-phenyl-3a,4-dihydro-3H-chromeno[4,3-c]pyrazole-2-carboxylic acid methyl-[2-(methyl-prop-2-ynyl-amino)-ethyl]-amide] | 0.1 to 1 |
| CC1CCN(CCN(C)C(=O)N2N=C3c4cc(F)ccc4OC[C@H]3[C@H]2c2ccccc2)CC1 (racemic) [Example 65, (3SR,3aSR)-8-Fluoro-3-phenyl-3a,4-dihydro-3H-chromeno[4,3-c]pyrazole-2-carboxylic acid methyl-[2-(4-methyl-piperidin-1-yl)-ethyl]-amide] | 0.1 to 1 |
| CC1CCN(CCCN(C)C(=O)N2N=C3c4cc(F)ccc4OC[C@H]3[C@H]2c2ccccc2)CC1 (racemic) [Example 66, (3SR,3aSR)-8-Fluoro-3-phenyl-3a,4-dihydro-3H-chromeno[4,3-c]pyrazole-2-carboxylic acid methyl-[3-(4-methyl-piperidin-1-yl)-propyl]-amide] | ≤ 0.1 |
| CN(C)C(=O)N1N=C2c3cc(F)ccc3OC[C@H]2[C@@H]1c1cccc(O)c1 (single isomer, unassigned) [Example 2b, (−)-cis-8-Fluoro-3-(3-hydroxy-phenyl)-3a,4-dihydro-3H-chromeno[4,3-c]pyrazole-2-carboxylic acid dimethylamide] | ≤ 0.1 |
| CN1CCC(N(C)C(=O)N2N=C3c4cc(F)ccc4OC[C@@H]3[C@@H]2c2cccc(O)c2)CC1 (single isomer, unassigned) [Example 3, (3RS,3aRS)-8-Fluoro-3-(3-hydroxy-phenyl)-3a,4-dihydro-3H-chromeno[4,3-c]pyrazole-2-carboxylic acid methyl-(1-methyl-piperidin-4-yl)-amide] | ≤ 0.1 |
| CN(CCN)C(=O)N1N=C2c3cc(F)ccc3OC[C@@H]2[C@@H]1c1ccccc1 (stereo in doubt) [Example 18, (3RS,3aRS)-8-Fluoro-3-phenyl-3a,4-dihydro-3H-chromeno[4,3-c]pyrazole-2-carboxylic acid (2-amino-ethyl)-methyl-amide] | ≤ 0.1 |
| CN(CCN)C(=O)N1N=C2c3cc(F)ccc3OC[C@H]2[C@H]1c1ccccc1 (stereo in doubt) [Example 18a, (3SR,3aSR)-8-Fluoro-3-phenyl-3a,4-dihydro-3H-chromeno[4,3-c]pyrazole-2-carboxylic acid (2-amino-ethyl)-methyl-amide] | ≤ 0.1 |
| CN1CCC(N(C)C(=O)N2N=C3c4cc(F)ccc4OC[C@H]3[C@H]2c2ccccc2)CC1 [Example 9a, (3S,3aS)-8-Fluoro-3-phenyl-3a,4-dihydro-3H-chromeno[4,3-c]pyrazole-2-carboxylic acid methyl-(1-methyl-piperidin-4-yl)-amide] | ≤ 0.1 |
| CN(C(=O)N1N=C2c3cc(F)ccc3OC[C@H]2[C@H]1c1ccccc1)C1CCNCC1 [Example 16a, (3S,3aS)-8-Fluoro-3-phenyl-3a,4-dihydro-3H-chromeno[4,3-c]pyrazole-2-carboxylic acid methyl-piperidin-4-yl-amide] | ≤ 0.1 |
| CN(C(=O)N1N=C2c3cc(F)ccc3OC[C@H]2[C@H]1c1cccc(O)c1)C1CCNCC1 [Example 27a, (3S,3aS)-8-Fluoro-3-(3-hydroxy-phenyl)-3a,4-dihydro-3H-chromeno[4,3-c]pyrazole-2-carboxylic acid methyl-piperidin-4-yl-amide] | ≤ 0.1 |
